Measured values published in ChEMBL document CHEMBL1128715, “Synthesis, resolution, and biological evaluation of the four stereoisomers of 4-methylglutamic acid: selective probes of kainate receptors” (J Med Chem, 1995).

Molecular target: Glutamate receptor ionotropic, NMDA 2C (Rattus norvegicus, UniProt Q00961)
Assay: Ability to inhibit [3H]CGS-19,755 binding to NMDA receptors.

Sequence of Glutamate receptor ionotropic, NMDA 2C (Q00961 whole entry): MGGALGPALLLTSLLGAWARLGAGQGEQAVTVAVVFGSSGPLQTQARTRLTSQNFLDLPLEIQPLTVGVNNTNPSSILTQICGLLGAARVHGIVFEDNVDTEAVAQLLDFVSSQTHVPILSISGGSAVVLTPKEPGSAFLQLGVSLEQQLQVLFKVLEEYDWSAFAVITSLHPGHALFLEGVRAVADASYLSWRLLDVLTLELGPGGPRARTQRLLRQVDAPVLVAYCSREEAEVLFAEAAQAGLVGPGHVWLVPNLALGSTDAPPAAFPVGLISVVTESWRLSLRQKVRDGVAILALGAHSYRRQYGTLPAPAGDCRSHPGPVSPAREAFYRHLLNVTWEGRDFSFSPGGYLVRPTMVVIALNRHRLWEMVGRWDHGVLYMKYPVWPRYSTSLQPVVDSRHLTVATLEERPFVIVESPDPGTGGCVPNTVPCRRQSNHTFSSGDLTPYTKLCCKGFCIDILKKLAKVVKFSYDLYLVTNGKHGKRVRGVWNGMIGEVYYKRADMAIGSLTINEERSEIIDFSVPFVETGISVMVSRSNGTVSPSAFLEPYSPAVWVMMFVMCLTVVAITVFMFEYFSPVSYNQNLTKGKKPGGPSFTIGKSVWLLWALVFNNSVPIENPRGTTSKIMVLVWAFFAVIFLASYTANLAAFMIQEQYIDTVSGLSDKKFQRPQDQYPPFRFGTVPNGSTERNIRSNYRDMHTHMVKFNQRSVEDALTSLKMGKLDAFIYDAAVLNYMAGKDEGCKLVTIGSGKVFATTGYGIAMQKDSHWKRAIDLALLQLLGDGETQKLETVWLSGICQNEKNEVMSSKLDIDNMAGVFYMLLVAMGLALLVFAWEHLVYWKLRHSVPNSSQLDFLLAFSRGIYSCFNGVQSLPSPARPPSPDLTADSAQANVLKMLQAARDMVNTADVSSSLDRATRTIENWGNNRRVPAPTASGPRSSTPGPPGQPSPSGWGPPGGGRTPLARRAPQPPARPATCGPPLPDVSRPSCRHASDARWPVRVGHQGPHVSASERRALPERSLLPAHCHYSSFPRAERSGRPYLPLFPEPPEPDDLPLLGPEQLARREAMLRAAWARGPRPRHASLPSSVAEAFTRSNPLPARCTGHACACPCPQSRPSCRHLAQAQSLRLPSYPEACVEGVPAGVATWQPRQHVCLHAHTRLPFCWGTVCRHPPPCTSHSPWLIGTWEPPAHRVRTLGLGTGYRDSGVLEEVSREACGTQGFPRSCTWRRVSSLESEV

IC50: > 7 µM
SMILES: C[C@H](C[C@H](N)C(=O)O)C(=O)O [2S,4R-4-METHYLGLUTAMATE]
